# Data from patent US7307166B1, “Oxpurine nucleosides and their congeners, and acyl, derivatives thereof, for improvement of hematopoiesis” (Wellstat Therapeutics Corporation, priority 1987, dated 2007).
# Tests used:
# [1] = test system: Balb/C female mice; assay: Hematopoietic recovery after cyclophosphamide in mice (spleen weight, blood cell counts); type: in vivo, mouse; conditions: for recovery of blood cell counts: Ex 58: mice treated with cyclophosphamide, other nonionic surfactants; for total neutrophil counts: 2 μmoles/mouse
# [2] = test system: Balb/C female mice; assay: as above; type: in vivo, mouse; conditions: for spleen weight: Ex 38: day 7 after CP, guanosine 5, acyl derivatives 2.5 μmoles/mouse/day in 0.2% Tween 80 i.p. 6 days, Tween 80 0.2%
# Protocol: Twenty-four hours later and each day thereafter for a total of 6 days, mice were given a 0.4 ml i.p. injection of either physiological saline (controls), guanine (5 μmoles/mouse/day), or guanosine (5 μmoles/mouse/day). On day 7 all 10 mice in each of the three groups were bled, and then sacrificed by cervical dislocation. Spleens were removed and weighed, and complete blood cell counts performed.
# Twenty-four hours later and each day thereafter for a total of 6 days, mice were given a 0.4 ml i.p injection of either physiological saline (controls), Tween 80 (0.2%), guanosine (5 μmoles/mouse/day in 0.2% Tween 80), or 2.5 μmoles per mouse per day of one of the following acylated derivatives of guanosine in 0.2% Tween 80: triacetylguanosine, octanoylguanosine, lauroylguanosine, or palmitoylguanosine. On day 7 following CP administration all 10 animals from each of the 7 groups were bled, and then sacrificed by cervical dislocation. Spleens were removed and weighed, and complete blood counts performed.
# Twenty-four hours later treatment was begun. Mice were given a 0.4 ml i.p. injection of either physiological saline (controls), Tween 80 (0.2%), or palmitoylguanosine (5 μmoles/mouse/day in 0.2% Tween 80). The timing of the treatments was varied within the groups. The control group was given saline on days 1-6. The mice receiving Tween 80 were treated either on days 1-4, 4-6 or 1-6. Palmitoylguanosine-treated mice were treated either on days 1-2, 1-4, 3-5, 4-6 or 1-6. If a group of mice received no Tween 80 or palmitoylguanosine on a given day, saline was administered by i.p. injection. Thus, there were 9 groups of 9 animals in all. On day 7 following CP administration all of the animals were bled and then sacrificed by cervical dislocation. Spleens were removed and weighed, and complete blood cell counts performed.
# Twenty-four hours later and each day thereafter for a total of 6 days, mice were given a 0.4 ml i.p. injection of either physiological saline (controls), Tween 80 (0.5%), or one of three different doses of octanoylguanosine (0.5, 2.5, or 5 μmoles/mouse/day in 0.5% Tween 80). On day 7 following CP administration all 9 animals from each of the […] were bled and then sacrificed by cervical dislocation. Spleens were removed and weighed, and complete blood cell counts performed.
# Twenty-four hours later and each day thereafter for a total of 6 days, mice were given a 0.4 ml i.p. injection of either physiological saline (controls), Tween 80 (0.5%), or octanoylguanosine (5.0 μmoles/mouse/day in 0.5% Tween 80). On day 7 following CP administration all 10 animals from each of the 3 groups were bled and then sacrificed by cervical dislocation. Spleens were removed, weighed, and fixed in 10% formalin for later histological examination. Complete blood cell counts were performed on the collected blood.
# Twenty-four hours later and each day thereafter for a total of 6 days, mice were given a 0.4 ml i.p. injection of either physiological saline (controls), benzoylguanosine (2.5 μmoles/mouse/day in 0.2% Tween 80), or palmitoylguanosine (2.5 μmoles/mouse/day in 0.2% Tween 80). On days 7 and 10 following CP administration 8 animals from each of the 3 groups were bled and then were sacrificed by cervical dislocation. Spleens were removed and weighed, and complete blood cell counts performed.
# Twenty four hours later and each day thereafter for a total of 4 or 6 days, mice were given a 0.4 ml i.p. injection of either physiological saline (controls), palmitoyldeoxyinosine (2.5 μmoles/mouse), or palmitoyl-xanthosine (2.5 μmoles/mouse). On days 5 and 7 following CP administration 6 of the 12 animals in each of the 3 groups were bled and then sacrificed by cervical dislocation. Spleens were removed and weighed, and complete blood cell counts performed.
# [3] = test system: FDCPmix cells; assay: FDCPmix cell proliferation in the presence of IL-3 (MTT assay); type: cell-based
# Protocol: The FDCPmix cell line was used as a suitable in vitro model for predicting the effects of hematopoietic factors on pluripotential stem cells. These cells can be maintained in an undifferentiated state in the presence of IL-3 or undergo multi-lineage development in the presence of specific hematopoietic growth factors.
# This level of proliferation (100%) served as the control value. Inhibition of proliferation by test compounds was represented as a percent of control.
# FDCPmix cells were plated at a density of 5×10^4 cells per well in 96-well plates (5×10^5/ml) using IMDM medium plus 10% fetal bovine serum. […] Test compounds were added at a decreasing concentrations ranging from 10 micrograms/ml down to 1 nanogram/ml. The test compounds included: 3′,5′-O—N^2-tripalmitoyl-2′-deoxyguanosine, 3′,5′-di-O-palmitoyl-2′-deoxy-guanosine, 3′,5′-O—N^2-trioctanoyl-2′-deoxyguanosine, 3′,5′-di-O-octanoyl-2′-deoxyguanosine, and 3′,5′-o-N^2-trioleyl-2′-deoxy-guanosine.
# [4] = Dose 10 μg, 48 hours, IL-3 25 units/ml
# [5] = Ex 48: day 7 after CP, 2.5 μmoles/mouse
# [6] = Ex 51: day 5 after CP, 2 μmoles/mouse i.p. daily, vs Tween-80
# [7] = Table 8 (Ex 63): 7 days after CP
# [8] = Ex 45: day 7 after CP, dose-dependent, 0.5-5 μmoles/mouse/day
# [9] = Ex 46: day 7 after CP, 5.0 μmoles/mouse/day
# [10] = Ex 47: day 7 after CP, 2.5 μmoles/mouse/day
compound,measurement,setting,value
Triton X-100,recovery of blood cell counts,[1],enhanced the recovery
"CCCCCCCCCCCC(=O)OC[C@H]1O[C@@H](n2cnc3c(=O)[nH]c(N)nc32)[C@H](O)[C@@H]1O [laurolyguanosine, Lauroylguanosine]",spleen weight,[2],significantly larger spleens
"CCCCCCCC(=O)OC[C@H]1O[C@@H](n2cnc3c(=O)[nH]c(N)nc32)C[C@@H]1OC(=O)CCCCCCC [DiOctdG, 3′,5′-di-O-octanoyl-2′-deoxyguanosine]",Cell proliferation (% of Control),[3]; Dose 10 ng,84 ± 2 % of Control
same,Cell proliferation (% of Control),[3]; Dose 39 ng,86 ± 1 % of Control
same,Cell proliferation (% of Control),[3]; Dose 156 ng,84 ± 6 % of Control
same,Cell proliferation (% of Control),[3]; Dose 625 ng,93 ± 1 % of Control
same,Cell proliferation (% of Control),[3]; Dose 2.5 μg,78 ± 2 % of Control
same,Cell proliferation (% of Control),[3]; [4],100 ± .3 % of Control
Tween 20,recovery of blood cell counts,[1],enhanced the recovery
"CCCCCCCCCCCCCCCC(=O)OC[C@H]1O[C@@H](n2cnc3c(=O)[nH]c(=O)[nH]c32)[C@H](O)[C@@H]1O [palmitoylxanthosine, Palmitoylxanthosine]",spleen weight,[1]; [5],significantly increased
same,Neutrophils,[2]; [5],significantly increased
same,total leukocytes,[2]; [5],significantly increased
"CCCCCCCCCCCCCCCC(=O)OC[C@H]1O[C@@H](n2cnc3c(=O)[nH]c(NC(=O)C(C)C)nc32)C[C@@H]1O [NibuPdG, N^2-isobutyryl-5′-O-palmitoyl-2′-deoxyguanosine]",total neutrophil counts,[1]; Ex 51: day 5 after CP,significantly elevated
same,spleen weight,[1]; [6],significantly elevated
polyoxyethylene-10-oleyl ether [Brij 96],recovery of blood cell counts,[1],enhanced the recovery
"CCCCCCCCCCCCCCCCCC(=O)Nc1nc2c(ncn2[C@H]2C[C@H](OC(=O)CCCCCCCCCCCCCCCCC)[C@@H](COC(=O)CCCCCCCCCCCCCCCCC)O2)c(=O)[nH]1 [TriSdG, 3′,5′-O-N^2-tristearyl-2′-deoxyguanosine]",Neutrophils,[1]; [7],5.4 ± .5 K/μl
same,WBC,[1]; [7],7.6 ± .4 K/μl
same,Spleen,"[1]; Table 8 (Ex 63): 7 days after CP, TriPdG 25 mg/kg, others molar equivalent, daily 5 days",85 ± 9 mg
CCCCCCCCCCCCCCCC(=O)OC[C@H]1O[C@@H](n2cnc3c(=O)[nH]cnc32)[C@H](O)[C@@H]1O [Palmitoylinosine],Hematopoietic Recovery after cyclophosphamide,"[1]; Ex 49 heading, 2.5 μmoles/mouse",Improves
"CCCCCCCC(=O)Nc1nc2c(ncn2[C@H]2C[C@H](OC(=O)CCCCCCC)[C@@H](COC(=O)CCCCCCC)O2)c(=O)[nH]1 [TriOctdG, 3′,5′-O—N^2-trioctanoyl-2′-deoxyguanosine]",Cell proliferation (% of Control),[3]; Dose 10 ng,87 ± 4 % of Control
same,Cell proliferation (% of Control),[3]; Dose 39 ng,85 ± 2 % of Control
same,Cell proliferation (% of Control),[3]; Dose 156 ng,89 ± 6 % of Control
same,Cell proliferation (% of Control),[3]; Dose 625 ng,86 ± 2 % of Control
same,Cell proliferation (% of Control),[3]; Dose 2.5 μg,96 ± .1 % of Control
same,Cell proliferation (% of Control),[3]; [4],107 ± 1 % of Control
CCCCCCCC(=O)OC[C@H]1O[C@@H](n2cnc3c(=O)[nH]c(N)nc32)[C@H](O)[C@@H]1O,spleen size,"[1]; Ex 45: day 7 after CP, 0.5, 2.5 or 5 μmoles/mouse/day in 0.5% Tween 80 i.p. 6 days",significantly larger
same,total number of leukocytes,[1]; [8],significantly increased
same,Neutrophils,[1]; [9],significantly greater
same,lymphopoiesis and myelopoiesis in the spleens (histology),[1]; [9],much greater
same,spleen weights,"[1]; Ex 46: day 7 after CP, 5.0 μmoles/mouse/day in 0.5% Tween 80, vs saline or Tween 80",significantly greater
same,neutrophil counts,[1]; Ex 58: 50 mg/kg in 0.2% Tween 80 vs same dose in 0.02% Tween 80,significantly higher
same,neutrophil counts,"[1]; Ex 58: day 7 after CP, 50 mg/kg/dose in 0.02% and 0.2% Tween 80, vs saline",significantly different from controls
same,spleen weight,[2],significantly larger spleens
same,total number of neutrophils,[2]; [8],significantly increased
same,peripheral white blood cells (WBC),[2]; [9],significantly greater
"CCCCCCCC/C=C\CCCCCCCC(=O)Nc1nc2c(ncn2[C@H]2C[C@H](OC(=O)CCCCCCC/C=C\CCCCCCCC)[C@@H](COC(=O)CCCCCCC/C=C\CCCCCCCC)O2)c(=O)[nH]1 [TriOdG, 3′,5′-O-N^2-trioleyl-2′-deoxyguanosine]",Cell proliferation (% of Control),[3]; Dose 10 ng,92 ± 5 % of Control
same,Cell proliferation (% of Control),[3]; Dose 39 ng,91 ± 5 % of Control
same,Cell proliferation (% of Control),[3]; Dose 156 ng,92 ± 5 % of Control
same,Cell proliferation (% of Control),[3]; Dose 625 ng,98 ± 6 % of Control
same,Cell proliferation (% of Control),[3]; Dose 2.5 μg,80 ± 2 % of Control
same,Cell proliferation (% of Control),[3]; [4],110 ± 3 % of Control
same,lymphocyte counts,"[1]; Ex 63: day 7 after CP, molar equivalent of 25 mg/kg TriPdG",increased
same,Platelets,[1]; [7],741 ± 54 K/μl
Nc1nc2c(ncn2[C@@H]2O[C@H](COC(=O)c3ccccc3)[C@@H](O)[C@H]2O)c(=O)[nH]1,Neutrophils,[1]; [10],significantly elevated
same,spleen weight,[1]; [10],significantly elevated
same,total white blood cells,"[1]; Ex 47: day 7 after CP, 2.5 μmoles/mouse/day in 0.2% Tween 80 i.p. 6 days",significantly elevated
same,platelet number,"[2]; Ex 47: day 10 after CP, 2.5 μmoles/mouse/day",significantly greater
octylphenol-ethylene oxide condensate [Nonidet P-40],recovery of blood cell counts,[1],enhanced the recovery
CCCCCCCCCCCCCCCC(=O)OC[C@H]1O[C@@H](n2c(N)nc3c(=O)[nH]c(N)nc32)[C@H](O)[C@@H]1O [palmitoyl-8-aminoguanosine],spleen weight,"[1]; Ex 59: days 5 and 7 after CP, 25 mg/kg/day",significantly elevated
same,Neutrophils,"[1]; Ex 59: days 5 and 7 after CP, 25 mg/kg/day in 0.2% Tween 80 i.p.",significantly elevated
"CC(=O)OC[C@H]1O[C@@H](n2cnc3c(=O)[nH]c(N)nc32)[C@H](OC(C)=O)[C@@H]1OC(C)=O [acetylguanosine, triacetylguanosine]",spleen weight,[2],significantly larger spleens
"CCCCCCCCCCCCCCCC(=O)O[C@H]1C[C@H](n2cnc3c(=O)[nH]c(N)nc32)O[C@@H]1CO [3′-O-palmitoyldeoxyguanosine, 3′-O-Palmitoyl-2′-Deoxyguanosine]",total neutrophil counts,[1]; Ex 51: day 5 after CP,significantly elevated
same,spleen weight,[1]; [6],significantly elevated
Tween 40,recovery of blood cell counts,[1],enhanced the recovery
